The text below walks through data of patent EP0314400A1, “Therapeutically active condensed thiadiazinones” (SMITH KLINE & FRENCH LABORATORIES LIMITED, priority 1987, dated 1989).

Experiment [1] relates to Anaesthetised Cats. As to the kind of experiment: Cardiac stimulant activity in vivo (anaesthetised cats). As to conditions: anaesthetised cats pretreated with pempidine and propranolol, administered intravenously; for ED50: Felis catus, iv, read-out: ED₅₀ (dose to increase left ventricular dp/dt max by 50%). From the text:
Cardiac Stimulant Activity - In vivo (Anaesthetised Cats)
In anaesthetised cats pretreated with a ganglion blocker (pempidine) and propranolol, the compounds of the Examples cause sustained increases in left ventricular dp/dt max (this is an index of left ventricular contractility) when administered intravenously. The dose to increase left ventricular dp/dt max by 50% is given as the ED₅₀.

For experiment [2], the target named is PDE (type III) enzyme (obtained from cat heart homogenate). As to the kind of experiment: Inhibition of phosphodiesterase (PDE) (type III). Type of experiment: biochemical. Conditions: 1 µM cAMP, read-out: IC₅₀. How it is done: Inhibition of Phosphodiesterase (PDE) (Type III)
Following the procedure described in EPA-247,724, IC₅₀ values (the concentration of inhibitor required for 50% inhibition of enzyme activity) were obtained by incubation of a PDE (type III) enzyme (obtained from cat heart homogenate) at 1 µM cAMP and a range of inhibitor concentrations from 0.1 x IC₅₀ to 100 x IC₅₀.

Regarding `Cc1nccn1-c1ccc2c(c1)CC1SC(=O)NN=C21` (centres unmarked) [Example 1, 7-(2-Methyl-1H-imidazol-1-yl)-9,9a-dihydroindeno[1,2-e][1,3,4]thiadiazine-2-(3H)-one], in experiment [1], the ED50 was found to be 0.72 µmol/kg. In experiment [2], the IC50 was 660 nM.
In the same order, the values of `Cc1cn(-c2ccc3c(c2)CC2SC(=O)NN=C32)cn1` (centres unmarked) [Example 2, 7-(4-Methyl-1H-imidazol-1-yl)-9,9a-dihydroindeno[1,2-e][1,3,4] thiadiazine-2-(3H)-one] are 0.46 µmol/kg and 410 nM.
With Amirone [reference compound], the “ED₅₀ (dose to increase left ventricular dp/dt max by 50%)” value in experiment [1] is reported as 5.6 µmol/kg.
